Laboratory results as given in US4166125A, “2-Oxo-phenylbutanoic acid derivatives” (Grelan Pharmaceutical Co., Ltd., priority 1977, dated 1979).

Experiments:
[1] = tested on: pain threshold of hind paws (Brewer's yeast); experiment: Analgesic activity, Randall and Selitto method (oral administration); assay type: in vivo, rat (Sprague-Dawley strain); conditions: Rattus norvegicus; oral, Litchfield-Wilcoxon method, from increasing percent of pain threshold
Protocol: Randall and Selitto method
According to a method conforming to Randall, L. O. and Selitto, J. J. [Archives Internationales de Pharmacodynamie et de Therapie, 111, 409, (1957)], 0.1 ml of 10% Brewer's yeast suspension in physiological saline was injected subcutaneously into the plantar surface of the right hind paws of 5 male rats in each group (Sprague-Dawley strain) weighing 90 to 110 g. 2 Hours after administration of the yeast suspension, each test compound suspended in 0.3% CMC-Na solution was orally administered to the rats in an amount of 1.0 ml per 100 g of body weight of the rat. 30 Minutes, 60 minutes and 120 minutes after administration of the test compounds, threshold values of left and right hind paws of the rats were measured by an electric pressure device made by Daiwa Kinzoku Co., Ltd. (Japan). The change of threshold was obtained by comparing the pain threshold obtained in a group after the yeast injection with that obtained before the yeast injection, in the same group as above. Increasing percent of pain threshold of the test compound was calculated on the basis of the mean changes of threshold of the test group and of that of the control group. Rats of the control group were administered orally only 0.3% CMC-Na solution.
According to the Litchfield-Wilcoxon method [The Journal of Pharmacology and Experimental Therapeutics, 96, 96, (1949)], ED50 value was calculated as follows on the basis of the increasing percent of pain threshold;

[2] = tested on: gastric mucosa; experiment: Effect on gastric mucosa (2) (oral administration); assay type: in vivo, rat (Sprague-Dawley strain); conditions: rats, 4 hours
Protocol: 4 Hours after the administration, the rat was sacrificed with ether, and its stomach was removed. The stomach was treated with 5% formalin for 3 minutes, and gastric mucosa was observed under a stereoscopic microscope. When gastric lesion in the mucosa was found, the number of the lesion in the mucosa was counted.

[3] = tested on: gastric mucosa; experiment: Effect on gastric mucosa (1) (oral administration); assay type: in vivo, mouse (ddY-strain); parameters: unit not given here; conditions: mice, 4 hours
Protocol: 4 Hours after the administration, the mouse was sacrificed with ether, and its stomach was removed. The stomach was treated with 5% formalin for 3 minutes, and gastric mucosa was observed under a stereoscopic microscope. When gastric lesion in the mucosa was found, the length of each lesion was measured. Degree of gastric damage (i.e. GD50)* was calculated on the basis of the length of the lesion of each mouse.
Remark *: GD50 : The value corresponding to the relative frequency of 50% on the normal probability paper plotted the length of gastric lesions of each mouse.

[4] = tested on: adjuvant arthritis; experiment: Inhibition to adjuvant arthritis (oral administration); assay type: in vivo, rat (Sprague-Dawley strain); conditions: for Increase in body weight / Weight of the organs: Adrenal glands / Weight of the organs: Spleen / Weight of the organs: Thymus: once a day for 7 days
Protocol: Inhibition to adjuvant arthritis.
According to a method conforming to Fujihira et al [Oyo Yakuri, 5, 169, (1971)], liquid paraffin suspension of Mycobacterium butiricum (hereinafter abbreviated as adjuvant) was injected subcutaneously to right hind paws of male rats (Spraque-Dawley strain) weighing 150 to 170 g in an amount of 0.3 mg/0.05 ml/rat. 14 Days after adjuvant injection, the rats, paws of which swelled to a similar degree, were selected and they were separated into groups. From the 15th day after adjuvant injection, each test compound suspended in 0.3% CMC-Na solution was orally administered once a day for 7 days to the 7 rats in each group in the dose shown in the following table 2.
The 16th, 19th and 22nd days after adjuvant injection the volume of left hand paws (i.e. paws not treated with the adjuvant) of the rats and their body weight were measured. Inhibition percent to the arthritis (edema) is calculated according to the same equation as that used in Experiment 1, and the value of ED40 is calculated on the basis of the inhibition percent. Then the rats were sacrificed with ether and the weight of their thymus, adrenal glands and spleen was determined.

[5] = tested on: carrageenin edema; experiment: Inhibitory effect on carrageenin edema (oral administration); assay type: in vivo, rat (Sprague-Dawley strain); conditions: for ED40: Rattus norvegicus, po, 3 h
Protocol: Inhibitory effect on carrageenin edema.
The experiment was carried out according to a method conforming to Van Arman, C. […] One hour after the administration of the test compound, 0.1 ml of 1% carrageenin solution in physiological saline was injected subcutaneously into the plantar sarface of the right hind paws of the rats. One hour after injection of carrageenin, the volume of the injected paws was measured hourly for 4 hours. Inhibition percent to carrageenin edema (%)* was calculated in comparison with the volume of paws of rats of a control group, to which only 0.3% CMC-Na solution was orally administered. [formula]

[6] = tested on: writhing syndrome due to acetic acid; experiment: Analgesic activity, stretching method (oral administration); assay type: in vivo, mouse (ddY-strain)
Protocol: The experiment was carried out according to a method conforming to Koster R. et al [Federation Proceedings 18, 412, (1960)]. […] 30 Minutes after administration of the test compound, 0.6% acetic acid aqueous solution was injected intraperitoneally to the mice in an amount of 0.1 ml per 10 g of body weight of the mouse, and then frequency of writhing syndrome due to acetic acid was counted for 20 minutes. Inhibition percent to the writhing syndrome was calculated in comparison with frequency of writhing syndrome counted on mice of a control group, to which only 1% gum arabic solution was orally administered.

[7] = Stability on storage at 50° C. and humidity of 70% for 1 month; assay type: physicochemical; conditions: among the compounds (I)
Protocol: For example, when the compounds (I) are kept at temperature of 50° C., and humidity of 70% for 1 month, no substantial change with respect to their appearances and values of quantitative analysis was observed, and no decomposition product was detected by thin-layer chromatography. Thus compounds (I) are prepared for administration in the form of pharmaceutical compositions according to conventional methods in the field of the art, and it is possible to prepare a pharmaceutical composition which comprises a therapeutically effective amount of at least one compound of the general formula (I) as an active ingredient, i.e. anti-inflammatory composition, in solid administration form (e.g. tablets, granules, powders, capsules, suppository), and liquid administration form (e.g. suspension, emulsion). In that case, as carrier, vehicle, solvent or dispersant, there may be used any of those which are known in the field of art. There may be exemplified water, starch, lactose, crystalline cellulose, magnesium stearate, hydroxypropyl cellulose, mannitol, carboxymethyl cellulose, glycol, ethanol, corn oil, peanut oil, castor oil, cacao butter, isocacao, polyoxyethylene stearate. […]

[8] = tested on: febrile body temperature (Brewer's yeast); experiment: Antipyretic activity (oral administration); assay type: in vivo, rat (Sprague-Dawley strain); conditions: 30 mg/Kg
Protocol: Antipyretic activity (oral administration)
According to a method conforming to Winter, C. A. et al [The Journal of Pharmacology and Experimental Therapeutics 133, 117, (1961)], 20% Brewer's yeast suspension in physiological saline was injected subcutaneously to 5 male rats in each group (Sprague-Dawley strain) weighing 200 to 250 g in an amount of 1.0 ml per 100 g of body weight of the rat. After fasting for 18 hours, each test compound suspended in 1% gum arabic solution was administered orally to the rats in an amount of 1.0 ml per 100 g of body weight. Then, the rectal temperature of the rats was taken.

[9] = 100 mg/Kg oral, 3 hour after administration
[10] = 100 mg/Kg oral, 4 hour after administration
[11] = 50 mg/Kg oral, 3 hour after administration

Compound	ED50 [1] [mg/kg]	Mean number of gastric lesion ([2]; 50 mg/Kg oral)	Mean number of gastric lesion ([2]; 100 mg/Kg oral)	Degree of gastric damage (GD50) ([3]; 100 mg/Kg oral)	Degree of gastric damage (GD50) ([3]; 200 mg/Kg oral)	Degree of gastric damage (GD50) ([3]; 282 mg/Kg oral)	Inhibition to adjuvant arthritis ([4]; 25 mg/Kg oral, 1st day) [%]	Inhibition to adjuvant arthritis ([4]; 25 mg/Kg oral, 4th day) [%]	Inhibition to adjuvant arthritis ([4]; 25 mg/Kg oral, 7th day) [%]	Increase in body weight ([4]; 25 mg/Kg oral) [g]	Weight of the organs: Adrenal glands ([4]; 25 mg/Kg oral)	Weight of the organs: Spleen ([4]; 25 mg/Kg oral)	Weight of the organs: Thymus ([4]; 25 mg/Kg oral)	Inhibition to adjuvant arthritis ([4]; 100 mg/Kg oral, 1st day) [%]	Inhibition to adjuvant arthritis ([4]; 100 mg/Kg oral, 4th day) [%]	Inhibition to adjuvant arthritis ([4]; 100 mg/Kg oral, 7th day) [%]	Increase in body weight ([4]; 100 mg/Kg oral) [g]	Weight of the organs: Adrenal glands ([4]; 100 mg/Kg oral)	Weight of the organs: Spleen ([4]; 100 mg/Kg oral)	Inhibition to carrageenin edema [5, 9] [%]	further results
CCCCC1C(=O)N(c2ccccc2)N(c2ccccc2)C1=O [Phenylbutazone]	250	0.2	4.2	5.2	10.0	13.0	32.2	28.8	38.3	30.9	13.2 ± 1.9 mg/100g of body weight	441.7 ± 29.9 mg/100g of body weight	141.6 ± 12.5 mg/100g of body weight	34.3	37.9	51.6	31.4	12.0 ± 1.0 mg/100g of body weight	444.0 ± 39.6 mg/100g of body weight	54.3 ± 2.0	Mean number of gastric lesion ([2]; 200 mg/Kg oral): 9.6; Weight of the organs: Thymus ([4]; 100 mg/Kg oral): 146.2 ± 14.8 mg/100g of body weight; Inhibition to carrageenin edema ([5]; 12.5 mg/Kg oral, 3 hour after administration): 12.0 ± 5.5%; Inhibition to carrageenin edema ([5]; 12.5 mg/Kg oral, 4 hour after administration): 19.9 ± 3.7%; Inhibition to carrageenin edema ([5]; 25 mg/Kg oral, 3 hour after administration): 9.6 ± 8.3%; Inhibition to carrageenin edema ([5]; 25 mg/Kg oral, 4 hour after administration): 14.3 ± 4.7%; Inhibition to carrageenin edema [5, 10]: 50.7 ± 6.0%; ED40 [5]: 62 mg/kg; Inhibition to writhing syndrome ([6]; 100 mg/Kg oral): 10%; Inhibition to writhing syndrome ([6]; 200 mg/Kg oral): 15%; Inhibition to writhing syndrome ([6]; 400 mg/Kg oral): 61%
CC(C(=O)C(=O)O)c1ccc(N2Cc3ccccc3C2=O)cc1 (centres unmarked) [2-Oxo-3-[4-(1-oxo-2-isoindolinyl)phenyl]butanoic acid]	–	0	1.0	–	–	–	–	–	–	–	–	–	–	–	–	–	–	–	–	53.2	Mean number of gastric lesion ([2]; 25 mg/Kg oral): 0; Stability (in words) [7]: more stable; Inhibition to carrageenin edema [5, 11]: 22.5%
CC(=O)Oc1ccccc1C(=O)O [Aspirin]	–	5.4	15.0	2.0	16.1	18.6	–	–	–	–	–	–	–	–	–	–	–	–	–	–	Mean number of gastric lesion ([2]; 12.5 mg/Kg oral): 1.0; Mean number of gastric lesion ([2]; 25 mg/Kg oral): 1.0; Degree of gastric damage (GD50) ([3]; 400 mg/Kg oral): 31.2; Drop of febrile body temperature [8]: 1 °C; Inhibition to writhing syndrome ([6]; 100 mg/Kg oral): 0%; Inhibition to writhing syndrome ([6]; 200 mg/Kg oral): 43%; Inhibition to writhing syndrome ([6]; 400 mg/Kg oral): 70%
CC(C)Cc1ccc(C(C)C(=O)O)cc1 (centres unmarked) [Ibuprofen]	130	–	–	–	–	–	25.6	15.7	32.0	26.7	13.7 ± 0.9 mg/100g of body weight	420.5 ± 34.9 mg/100g of body weight	143.3 ± 8.9 mg/100g of body weight	28.1	37.3	53.4	16.0	15.3 ± 1.7 mg/100g of body weight	438.0 ± 40.0 mg/100g of body weight	42.2 ± 0.3	Weight of the organs: Thymus ([4]; 100 mg/Kg oral): 127.8 ± 20.7 mg/100g of body weight; Inhibition to carrageenin edema [5, 11]: 19.2 ± 22.0%; Inhibition to carrageenin edema ([5]; 50 mg/Kg oral, 4 hour after administration): 23.5 ± 14.2%; Inhibition to carrageenin edema [5, 10]: 33.7 ± 3.1%; Inhibition to carrageenin edema ([5]; 200 mg/Kg oral, 3 hour after administration): 43.9 ± 1.0%; Inhibition to carrageenin edema ([5]; 200 mg/Kg oral, 4 hour after administration): 37.1 ± 4.7%; ED40 [5]: 90 mg/kg
